Laboratory results published in patent publication US20040102454A1, “Phenylahistin and the phenylahistin analogs, a new class of anti-tumor compounds” (priority 1998, published 2004).
In brackets after ≈: the same amount, converted by molar mass. Several values for one entry are separate records, joined by “and”; a condition that tells them apart may be missing. Equal entries are not always repeated. Where two headings read alike, the source gives them in different places. Values belong to the compound of their own block, whether it stands above or below them.

How the values were obtained:
PARP in Jurkat cells = experiment: Cleavage of poly(ADP-ribose) polymerase (PARP), western blotting; format: cell-based; conditions: 10 hours after exposure
Excerpt: In order to assess the ability of t-butyl-phenylahistin to induce apoptosis in Jurkat cells, cleavage of poly(ADP-ribose) polymerase (PARP) was monitored. PARP is a 116 kDa nuclear protein that is one of the main intracellular targets of Caspase-3. The cleavage of PARP generates a stable 89 kDa product, and this process can be easily monitored by western blotting. Cleavage of PARP by caspases is one of the hallmarks of apoptosis, and as such serves as an excellent marker for this process.

[1] = tested on: T. mentagrophytes isolate #2; experiment: Antifungal susceptibility testing, broth dilution (NCCLS M38-A); format: cell-based, Trichophyton mentagrophytes; conditions: 80% reduction in turbidity
Procedure: (§1) Antifungal susceptibility testing was accomplished according to the methods outlined in the National Committee for Clinical Laboratory Standards, M38-A “Reference Method for Broth Dilution Antifungal Susceptibility Testing of Conidium-Forming Filamentous Fungi; Approved Standard.” This includes testing in RPMI-1640 with glutamine and without bicarbonate, an inoculum size of 0.4-5×10^4, and incubation at 30 or 35° C. for 48 hours. […] Drug concentrations were 0.03-16 μg/ml for the investigational compounds, 0.015-8 μg/ml for itraconazole and griseofulvin.
(§2) The minimum lethal concentration (MLC) was determined by plating […] from the MIC concentration and each concentration above the MIC. […] When a MIC was obtained, a minimum fungicidal concentration (MFC) was determined to assess the fungistatic/fungicidal nature of the compound. […] The compound is scored as fungistatic if the cells are able to resume growth and fungicidal if no regrowth is possible because the compound had killed the organisms.

[2] = tested on: T. mentagrophytes isolate #1; experiment: as above; format: cell-based, Trichophyton mentagrophytes; conditions: for MIC: 80% reduction in turbidity
Procedure: as §1, §2

T. rubrum isolate #2 = experiment: as above; format: cell-based, Trichophyton rubrum; conditions: for MIC: 80% reduction in turbidity
Procedure: as §1, §2

T. rubrum isolate #1 = experiment: as above; format: cell-based, Trichophyton rubrum; conditions: T. rubrum isolate #1, 80% reduction in turbidity
Procedure: as §1, §2

A. fumigatus isolate #2 = experiment: as above; format: cell-based; conditions: Aspergillus fumigatus, 80% reduction in turbidity
Procedure: as §1, §2

E. floccosum isolate #1 = experiment: as above; format: cell-based, Epidermophyton floccosum; conditions: 80% reduction in turbidity
Procedure: as §1, §2

E. floccosum isolate #2 = experiment: as above; format: cell-based, Epidermophyton floccosum
Procedure: as §1, §2

[3] = tested on: DU-145 human prostate tumor; experiment: DU-145 Human Prostate Tumor Xenograft Model; format: in vivo, nude mice; conditions: Taxotere alone
Procedure: Male mice were implanted s.c. by trocar with fragments of DU-145 tumors harvested from s.c. growing tumors in nude male mice hosts. When the tumors reached ˜5 mm×5 mm ( at about 13-17 days) the animals were matched into treatment and control groups. The remainder of the study proceeded as for the HT-29 model, using taxotere as the standard chemotherapy agent.
In this model unless otherwise noted for the individual study, test compound was administered via the intraperitoneal route on Days 1, 3, 5, 8 and 11 (q3d×5); taxotere was administered intravenously on Days 1, 3 and 5 (q2d×3).
The study involved an assessment of t-butyl-phenyalhistin alone and in combination with taxotere.

[4] = tested on: tubulin in Human umbilical vein endothelial cells (HuVEC); experiment: Action on microtubule function, staining for α-tubulin; format: cell-based; conditions: 2 μM, thirty minutes exposure
[5] = tested on: microtubules in A549 cells; experiment: Immunofluorescence staining of microtubules; format: cell-based, human; conditions: 6 hours incubation
Procedure: Immunocytochemical staining was performed using the method described by Yahara, I. et al., Cell (1978) 15, 251-259. A549 cells were cultured on glass coverslips and incubated with the test drug for 6 hours. The cells were then fixed with 3.7% formaldehyde for 30 min, permeabilized with 0.2% Triton X-100 for 5 min, and incubated with a mouse monoclonal antibody against α-tubulin (Calbiochem®, Oncogene Research Products, Cambridge, Mass.), followed by incubation with fluorescein isothiocyanate-conjugated goat anti-mouse IgG from Cosmo Bio Co., (Tokyo, Japan), and the cells were examined under an immunofluorescent microscope.

[6] = tested on: MES-SA (Taxol Sensitive) human uterine sarcoma tumor cell line; experiment: Drug resistant cell line pair, cytotoxicity; format: cell-based; conditions: CsA Pretreat versus No CsA
Excerpt: MES-SA (Taxol Sensitive) and MES-SA DX (Taxol Resistant). This cell line expresses elevated mdr-1 mRNA and P-glycoprotein (an extrusion pump mechanism). Pretreatment with cyclosporin-A (CsA) blocks P-glycoprotein and reinstates activity in the resistant cell line for those compounds for which the resistance is due to elevated P-glycoprotein.

HuVEC monolayer = HuVEC monolayer permeability to FITC-Dextran; format: cell-based, human; conditions: FITC-Dextran
Excerpt: This vascular collapse is preceded by a rapid induction of vascular cell permeability initially to electrolytes and soon after to large molecules. The enhanced permeability of HuVEC cells to a fluorescent-labeled dextran is used as a proxy assay for vascular collapse.

bovine brain tubulin = experiment: [^3H]CLC binding to tubulin and competition assay
Procedure: [^3H]CLC binding to tubulin was evaluated by the ultrafiltration method of Takahashi, M., et al., Biochim. Biophys. […] The concentration of unbound [^3H]CLC in the filtrates was determined using a EcoLite™(+) liquid scintillator from ICN Pharmaceuticals Inc. (Costa Mesa, Calif.). Specific bound [^3H]CLC concentrations were determined by adding an excess (×100) of unlabeled CLC to the reaction mixture.
For the competition assay, bovine brain tubulin (0.2 mg/ml) was incubated in the microtubule assembly buffer with 0.5 μM [^3H]CLC and various concentrations of competitors for 20 min at 37° C. [^3H]CLC binding was measured as described above.

P388 cells = experiment: P388 proliferation, Alamar Blue assay; format: cell-based, murine; conditions: Mus musculus, P388; Alamar Blue assay (Table 4); read-out: IC50 for P388 Proliferation
Procedure: For this example, the Alamar Blue™ assay was performed as follows. Exponentially growing P388 cells were seeded into 96-well tissue culture plates (5×10^3 cells/100 μl/well) and cultured in RPMI 1640 medium supplemented with 10% fetal bovine serum for 16 h. Compounds (DMSO solution) were then added to each well at various concentrations, and the cells were cultured for an additional 48 h. Living cells were counted using Alamar Blue™ (BioSource International, Camarillo, Calif.), according to the method of Ahmed, S. A. et al., J. Immunol. Methods, 170, 211 (1994).

[7] = tested on: Microtubule protein from bovine brain; experiment: Microtubule protein polymerization assay (turbidity); format: biochemical; conditions: microtubule protein 1.5 mg/ml (Table 4); read-out: IC50 for Microtubule Protein Polymerization
Procedure: Microtubule protein was prepared from bovine brain tissue by two cycles of assembly and disassembly according to the method of Tiwari, S. C. et al. Anal. Biochem, (1993), 215, 96-103. Tubulin was purified from microtubule protein by phosphocellulose chromatography see Algaier, J. et al. Biochim. Biophys. Acta, (1988), 954, 235-43, and tubulin purity was evaluated by polyacrylamide gel electrophoresis, as in Laemmli, U.K., Nature, (1970), […], 680-85. […] Protein concentrations were determined using the Coomassie® Protein Assay Reagent from Pierce (Rockford, Ill.).
Polymerization of microtubule protein was monitored by an increase in turbidity at 37° C. in microtubule assembly buffer containing 100 mM MES, 0.5 mM MgCl2, 1 mM EGTA and 1 mM GTP. See Johnson, K. A. et al., J. Mol. Biol., (1977), 117, 1-31. Polymerization of purified tubulin was measured using the same method except the microtubule assembly buffer contained 4 M glycerol. See Lee, J. C. et al., Biochemistry, (1975), 14, 5183-87. Microtubule protein and tubulin polymerization was initiated by a temperature shift from 0° C. to 37° C. and turbidity was measured on a DU-20 thermocontrolled spectrophotometer from Beckman (Fullerton, Calif.) at 360 nm. Drugs were dissolved in dimethyl sulfoxide (DMSO), which was used in all experiments at a final concentration of 2% (v/v).
For this example, the microtubule protein polymerization assay was performed as follows. Microtubule protein was prepared from bovine brain tissue by two cycles of assembly and disassembly. Polymerization of microtubule protein was monitored by an increase in turbidity at 37° C. in microtubule assembly buffer containing 100 mM MES, 0.5 mM MgCl2, 1 mM EGTA and 1 mM GTP. The polymerization of microtubule protein was initiated by a temperature shift from 0° C. to 37° C. Turbidity was measured on a thermo-controlled spectrophotometer (Beckman DU-20, Fullerton, Calif.) at 360 nm. Compounds were dissolved in DMSO, which was used in all experiments at a final concentration of 2% (v/v).

A. fumigatus isolate #1 = experiment: Antifungal susceptibility testing, broth dilution (NCCLS M38-A); format: cell-based; conditions: Aspergillus fumigatus, 80% reduction in turbidity
Procedure: as §1, §2

[8] = Trichophyton mentagrophytes, read-out: MIC
[9] = Trichophyton rubrum, read-out: MIC

Structure (SMILES): C=CC(C)(C)c1nc[nH]c1/C=C1\NC(=O)C(Cc2ccccc2)NC1=O (centres unmarked) [Halimide]
cleavage of PARP (PARP in Jurkat cells): active at inducing cleavage of PARP

MIC [1, 8]: 2 µg/mL (≈ 5.67 µM)
MIC [2, 8]: 1 µg/mL (≈ 2.83 µM)
MIC (T. rubrum isolate #2; [9]): < 0.015 µg/mL
MIC (T. rubrum isolate #1; [9]): 0.5 µg/mL (≈ 1.42 µM)
MIC (A. fumigatus isolate #2): 0.5 µg/mL (≈ 1.42 µM)
MIC (E. floccosum isolate #1; Epidermophyton floccosum, read-out: MIC): 2 µg/mL (≈ 5.67 µM)
Structure (SMILES): COC1=CC(=O)C[C@@H](C)[C@]12Oc1c(Cl)c(OC)cc(OC)c1C2=O [griseofulvin, reference compound]
MFC (E. floccosum isolate #2; Epidermophyton floccosum, read-out: MICs and MFCs): 4 µg/mL (≈ 11.3 µM)

Structure (SMILES): C=CC(C)(C)c1[nH]cnc1/C=C1\NC(=O)[C@H](Cc2ccccc2)NC1=O [NPI2350]
MIC [1]: >16 µg/mL
MFC [2]: >16 µg/mL
MIC [2]: 16 µg/mL (≈ 45.7 µM)
MFC (T. rubrum isolate #2): >16 µg/mL
MIC (T. rubrum isolate #2): 0.16 µg/mL (≈ 0.457 µM)
MIC (T. rubrum isolate #1): >16 µg/mL
MIC (E. floccosum isolate #1): >16 µg/mL
MICs and MFCs (E. floccosum isolate #2): >16 µg/mL

Structure (SMILES): CC(=O)O[C@@]12CO[C@@H]1C[C@H](O)[C@@]1(C)C(=O)[C@H](O)C3=C(C)[C@@H](OC(=O)[C@H](O)[C@@H](NC(=O)OC(C)(C)C)c4ccccc4)C[C@@](O)([C@@H](OC(=O)c4ccccc4)[C@H]21)C3(C)C [Taxotere, reference compound]
NCI established criterion for a positive effect (TGA 58%) [3]: did not reach the NCI established criterion

Structure (SMILES): CC(=O)O[C@H]1C(=O)[C@@]2(C)[C@H]([C@H](OC(=O)c3ccccc3)[C@]3(O)C[C@H](OC(=O)[C@H](O)[C@@H](NC(=O)c4ccccc4)c4ccccc4)C(C)=C1C3(C)C)[C@]1(OC(C)=O)CO[C@@H]1C[C@@H]2O [Taxol, paclitaxel, reference compound]
microtubule depolymerization [4]: did not induce microtubule depolymerization
microtubule structure (anti α-tubulin staining) [5]: thick microtubule bundles and multiple bright fluorescent aster formation
Ratio No CsA [6]: 0.6 and 0.4
HuVEC monolayer permeability (HuVEC monolayer): inactive

effect on CLC binding to tubulin (bovine brain tubulin): slightly enhanced
Structure (SMILES): CC[C@]1(O)C[C@@H]2CN(CCc3c([nH]c4ccccc34)[C@@](C(=O)OC)(c3cc4c(cc3OC)N(C)[C@H]3[C@@](O)(C(=O)OC)[C@H](OC(C)=O)[C@]5(CC)C=CCN6CC[C@]43[C@@H]65)C2)C1 [VLB, vinblastine, reference compound]

melting point: 285 to 286 °C (dec.)
IC50 (P388 cells): 7.5 µM
IC50 [7]: > 200 µM
Structure (SMILES): Cc1[nH]cnc1C=C1NC(=O)C(Cc2ccccc2)NC1=O (centres unmarked) [Compound 9]

MIC (A. fumigatus isolate #1): 1 µg/mL (≈ 1.42 µM)
Structure (SMILES): CCC(C)n1ncn(-c2ccc(N3CCN(c4ccc(OCC5COC(Cn6cncn6)(c6ccc(Cl)cc6Cl)O5)cc4)CC3)cc2)c1=O (centres unmarked) [itraconazole, reference compound]
